Source: patent US20210002209A1, “NOVEL CRYSTALLINE FORMS OF TAMIBAROTENE FOR TREATMENT OF CANCER” (TRANSGENEX NANOBIOTECH, INC., priority 2018, published 2021)
Like-named read-outs stand apart in the source and are kept apart here.

How the values were obtained:
Assay type in all cases: cell-based
A549 = test: IC50 studies, monolayer cell culture assay (CellTiter-Glo cell viability, 72 hours); settings: A549, lung
Description: (§1) Cancer cell lines listed in Table 1, were subjected for testing anti-cancer potency or the half maximal inhibitory concentration (IC50) of tamibarotene molecular complexes.
(§2) The SK-ES-1, U-2 OS, and SAOS-2 cells were cultured in a growth medium that is ATCC-formulated McCoy's 5a Medium Modified, Catalog No. 30-2007. The PC-3, PANC-1, SK-Mel-5, A549, H460, and H1299 were cultured in a growth medium that is ATCC-formulated Dulbecco's Modified Eagle's Medium (DMEM), Catalog No. 30-2002. The cells were seeded on 96-well microtiter plates with 3500 cells per well and cultured in an incubator (Model 3120, Thermo Scientific, USA) with a constant temperature at 37° C. and 5% carbon dioxide (CO2) gas for 24 hours.
(§3) The new tamibarotene molecular complexes were made into a series with concentration of 200 nM to 40 nM, 8 nM, 1.6 nM, 0.32 nM, and 0.064 nM. […]
(§4) The treated cells in the 96 well plate was then further cultured at the same conditions for 72 hours and then subjected for a final cell viability measurement. The measurement used a homogeneous method to determine the number of metabolically active cells presented in each of treatments. A testing reagent for the measurement is a mixture solution of the CellTiter-Glo® 2.0 reagent (CTG, Promega Cat #G9243, USA) and growth medium in 1:1 ratio in this respect.
(§5) The 96-well plate with the new molecular complex treated cells was taken out from incubator after the 72 hours of incubation, and the treatment solution in each well was removed using a multichannel pipette, and 100 μl of the testing reagent were added into each well. The plate was then placed on a plate shaker for 15 min. The plate was covered with a piece of aluminum foil to protect the CTG luminescence during the shaking time.
(§6) Then 90 μl of the 100 μl testing reagent were transferred into an opaque-walled 96-well plate for the CTG luminescence reading on a plate reader (SynergyH4 Hybrid Reader, Biotek, USA). The luminescence intensity of each treatment was positively correlated with the number of cells survived during the treatments.
(§7) All the treatment data was normalized by comparing with the control samples that had only growth medium without any molecular complexes. The half maximal inhibitory concentration (IC50) data was calculated using the nonlinear regression model and dose-responses (inhibition) curve built in the software. Each of treatments was performed in three replications each time and repeated three times for validation. The IC50 average […] (Avg) and standard deviation (STDV) were calculated based on the three replications.

H1299 = test: as above; settings: H1299, lung
Description: as §1, §2, §3, §4, §5, §6, §7

H460 = test: as above; settings: H460, lung
Description: as §1, §2, §3, §4, §5, §6, §7

PC-3 = test: as above; settings: PC-3, prostate
Description: as §1, §2, §3, §4, §5, §6, §7

SAOS = test: as above; settings: sarcoma
Description: as §1, §2, §3, §4, §5, §6, §7

SK-ES-1 = test: as above; settings: SK-ES-1, sarcoma
Description: as §1, §2, §3, §4, §5, §6, §7

SK-Mel-5 = test: as above; settings: SK-Mel-5, skin
Description: as §1, §2, §3, §4, §5, §6, §7

U-2 OS = test: as above; settings: sarcoma
Description: as §1, §2, §3, §4, §5, §6, §7

[1] = test system: sarcoma cell line SK-ES-1; test: Tumor sphere formation assay; settings: SK-ES-1 spheres, diameter over 50 μm, day 6
Source text: Cancer stem cells (CSCs) are defined as a small subset of cells within a tumor with the ability to self-renew and often drive tumor progression and recurrence after chemotherapy treatment (Zhou et al. (2015) “A Reliable Parameter to Standardize the Scoring of Stem Cell Spheres,” PLOS One 10(5); e0127348). It is important to study the responses of cancer stem cells or the tumors treated with the new molecular complexes. We have assessed CSC growth using tumor sphere formation assay, which involves culturing cancer cells in low attachment plates in serum free media. Sphere size and diameter was measured using ImageJ software and statistical analysis was performed using Graph Pad Prism Software. […]
On the day 6 of seeding, 10 μl of NucBlue Live Cell Stain ReadyProbes (Invitrogen Cat #R37605, USA) were added into each well for staining to visualize the live cells under the blue fluorescent light. […] Then the plate was brought to the Keyence imaging device (Keyence America, All-in-One Fluorescence Microscope BZ-X800, USA) for image scanning. […]
The sphere image area is calculated as a sum of image area of every individual sphere with diameter over 50 μm in each treatment well. […]
The sarcoma spheres were stained with NucBlue Live Cell Stain ReadyProbes (Invitrogen Cat #R37605) and imaged under 4× objective lens on Keyence imaging scanner (Keyence America, All-in-One Fluorescence Microscope BZ-X800).

[2] = Test I, read-out: IC50 Test(I) Avg
[3] = Test II, read-out: IC50 Test (II) Avg
[4] = Test III, read-out: IC50 Test (III) Avg

Q: With `CC1(C)CCC(C)(C)c2cc(NC(=O)c3ccc(C(=O)O)cc3)ccc21.O=C(O)c1cc(O)c(O)c(O)c1` [TAM-gallic acid] as the compound, how does the IC50 (A549; [2]) read?
A: 39.9 µM

Q: What about the IC50 (A549; [3]) of the same compound?
A: 43.3 µM

Q: And the IC50 (A549; [4])?
A: 39.9 µM

Q: What about the IC50 (H1299; [2]) of the same compound?
A: 11.2 µM

Q: And the IC50 (H1299; [3])?
A: 24.8 µM

Q: What about the IC50 (H1299; [4]) of the same compound?
A: 11.7 µM

Q: And the IC50 (H460; [2])?
A: 42 µM

Q: What about the IC50 (H460; [3]) of the same compound?
A: 41.9 µM

Q: And the IC50 (H460; [4])?
A: 41.3 µM

Q: What about the IC50 (PC-3; [2]) of the same compound?
A: 81 µM

Q: And the IC50 (PC-3; [3])?
A: 90.3 µM

Q: And the IC50 (PC-3; [4])?
A: 108 µM

Q: What about the IC50 (SAOS; [2]) of the same compound?
A: 11.6 µM

Q: And the IC50 (SAOS; [3])?
A: 9.98 µM

Q: What about the IC50 (SAOS; [4]) of the same compound?
A: 14.9 µM

Q: And the IC50 (SK-ES-1; [2])?
A: 10.1 µM

Q: And the IC50 (SK-ES-1; [3])?
A: 5.94 µM

Q: What about the IC50 (SK-ES-1; [4]) of the same compound?
A: 6.76 µM

Q: And the IC50 (SK-Mel-5; [2])?
A: 47.5 µM

Q: What about the IC50 (SK-Mel-5; [3]) of the same compound?
A: 64.2 µM

Q: And the IC50 (SK-Mel-5; [4])?
A: 88.5 µM

Q: And the IC50 (U-2 OS; [2])?
A: 16.4 µM

Q: And the IC50 (U-2 OS; [3])?
A: 13 µM

Q: And the IC50 (U-2 OS; [4])?
A: 10.6 µM

Q: And the “tumor spheres size compared with the parent molecule” value [1]?
A: reduced tumor spheres size
